Biological target: T1, glucocerebrosidase (Homo sapiens, UniProt P04062)
T1 sequence (P04062 40-536): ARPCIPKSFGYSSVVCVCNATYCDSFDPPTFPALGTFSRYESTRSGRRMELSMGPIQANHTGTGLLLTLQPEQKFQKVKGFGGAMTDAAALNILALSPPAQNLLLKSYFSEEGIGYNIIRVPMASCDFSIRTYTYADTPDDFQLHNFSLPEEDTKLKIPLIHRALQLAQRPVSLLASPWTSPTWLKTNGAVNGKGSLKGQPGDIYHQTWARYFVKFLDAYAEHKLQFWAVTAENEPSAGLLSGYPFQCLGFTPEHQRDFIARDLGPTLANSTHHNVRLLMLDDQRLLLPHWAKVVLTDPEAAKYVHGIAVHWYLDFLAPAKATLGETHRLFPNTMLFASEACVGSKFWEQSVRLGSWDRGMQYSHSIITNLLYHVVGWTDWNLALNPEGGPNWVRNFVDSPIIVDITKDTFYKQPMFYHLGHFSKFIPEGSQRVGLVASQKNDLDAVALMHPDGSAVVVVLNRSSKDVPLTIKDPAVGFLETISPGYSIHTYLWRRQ
Test: Glucocerebrosidase activity assay with blue substrate (4MU-Glc)
Assay type: biochemical
Settings: Table 1, 7.5 nM enzyme, 1.5 mM 4MU-Glc, 30 min at 37° C.; for AC50: titration 24 nM to 50 μM
Protocol: Example 2—Glucocerebrosidase Activity Assay with Blue Substrate
The compounds in DMSO solution 0.5 μL/well were transferred to a black 96-well plate (the final titration was 24 nM to 50 μM, 12 concentrations, 2× dilution). 33.5 μL enzyme solution (7.5 nM final concentration) was transferred to the wells. After 5 min of incubation at room temperature, the enzyme reaction was initiated by the addition of 33 μL/well blue substrate. Final concentration of the blue substrate (4MU-Glc) was 1.5 mM. The blue substrate reaction was terminated by the addition of 33 μL/well stop solution (1 M NaOH and 1 M glycine mixture, pH 10) after 30 min of incubation at 37° C. The fluorescence was then measured in the Biotek Synergy H1 multi-mode plate reader with Ex=365 nm and Em=440 nm.
Additional compounds were synthesized and tested for glucocerebrosidase modulatory activity as described in Example 1 and Example 2.

SMILES | Emax [%] | AC50 [µM]
CN(C[C@H]1COc2ccccc2O1)c1nc(-c2cccnc2)nc2ccccc12 [Compound 9, (S)—N-((2,3-dihydrobenzo[b][1,4]dioxin-2-yl)methyl)-N-methyl-2-(pyridin-3-yl)quinazolin-4-amine] | 645 | 1.49
CN(C[C@H]1COc2ccccc2O1)c1nc(-c2cccnc2)nc2c1cnn2C [Compound 10] | 573 | 1.38
CN(C[C@H]1COc2ccccc2O1)c1nc(-c2cccnc2)nc2ncccc12 [Compound 11] |  | 3.83
CN(C[C@@H]1COc2ccccc2O1)c1nc(-c2cccnc2)nc2ccccc12 [Compound 12] | 220 | 2.67
O=C(O)CCCCCCCN(CCOc1ccccc1)c1nc(-c2cccnc2)nc2ccccc12 [Compound 19] | 150 | 1.78
O=C(CCCCCCCN(CCOc1ccccc1)c1nc(-c2cccnc2)nc2ccccc12)ON1C(=O)CCC1=O [Compound 20] | 500 | 1.26
c1ccc(OC2CCN(c3nc(-c4cccnc4)nc4ccccc34)C2)cc1 (stereo not shown) [Compound 22] | 300 | 1.58
c1ccc(OCCOc2nc(-c3cccnc3)nc3ccccc23)cc1 [Compound 24] | 140 | 3.16
c1ccc(O[C@H]2CCCN(c3nc(-c4cccnc4)nc4ccccc34)C2)cc1 [Compound 25] | 220 | 3.98
c1ccc(O[C@@H]2CCCN(c3nc(-c4cccnc4)nc4ccccc34)C2)cc1 [Compound 26] | 225 | 1.78
Cc1cc(C)cc(OCCN(C)c2nc(-c3cccnc3)nc3ccccc23)c1 [Compound 27] | 225 | 3.98
CN(CCOC(C)(C)C)c1nc(-c2cccnc2)nc2ccccc12 [Compound 29] | 180 | 39.8
CN(CCc1c[nH]c2ccccc12)c1nc(-c2cccnc2)nc2ccccc12 [Compound 30] | 250 | 5.01
CN(CCN(C)c1nc(-c2cccnc2)nc2ccccc12)c1ccccc1 [Compound 42] | 250 | 6.54
CN(CCOc1ccccc1)c1nc(-c2cccnc2)nc2c(C(F)(F)F)cccc12 [Compound 43] | 400 | 1.81
CN(CCOc1ccccc1)c1nc(-c2cccnc2)nc2cc(C(F)(F)F)ccc12 [Compound 44] | 180 | 4.12
CN(CCOc1ccccc1)c1nc(-c2cccnc2)nc2ccc(C(F)(F)F)cc12 [Compound 45] | 120 | 5
Cc1sc2nc(-c3cccnc3)nc(N(C)CCOc3ccccc3)c2c1C [Compound 55] | 458 | 39.8
CN(CCOc1ccccc1)c1nc(-c2cccnc2)nc2c1CCC2 [Compound 56] | 295 | 3.3
CN(CCOc1ccccc1)c1nc(-c2cccnc2)nc2c1CCCC2 [Compound 58] | 130 | 1.41
CN(CCOc1ccccc1)c1nc(-c2cccnc2)nc2ccsc12 [Compound 59] | 333 | 5.01
CN(CCOc1ccccc1)c1nc(-c2cccnc2)nc2sccc12 [Compound 60] | 624 | 3.16
COC(=O)Cc1ccc(CNc2nc(-c3cccnc3)nc3ccccc23)cc1 [Compound 61] | 127 | 2.51
CN(CCOc1ccccc1)c1nc(-c2cccnc2)nc2ncccc12 [Compound 62] |  | 7.08
CN(CCOc1ccccc1)c1nc(-c2cccnc2)nc2[nH]ccc12 [Compound 63] | 461 | 3.98
Cc1csc2c(N(C)CCOc3ccccc3)nc(-c3cccnc3)nc12 [Compound 64] | 222 | 2.51
CN(CCOc1ccccc1)c1cc(-c2ccccc2)nc(-c2cccnc2)n1 [Compound 65] | 144 | 1
CN(CCOc1ccccc1)c1nc(-c2cccnc2)nc2ccoc12 [Compound 67] | 787 | 10
CN(CCOc1ccccc1)c1nc(-c2cccnc2)nc2c1SCC2 [Compound 68] | 327 | 12.6
CN(CCOc1ccccc1)c1nc(-c2cncc(F)c2)nc2ncccc12 [Compound 69] |  | 7.1

Next, values leading:

Emax [%] | AC50 [µM] | SMILES
750 | 3.55 | CN(CCOc1ccccc1)c1nc(-c2cccnc2)nc2ccccc12 [Compound 13]
430 | 5.01 | CCN(CCOc1ccccc1)c1nc(-c2cccnc2)nc2ccccc12 [Compound 14]
130 | 3.12 | CCCN(CCOc1ccccc1)c1nc(-c2cccnc2)nc2ccccc12 [Compound 15]
190 | 1.58 | CN(CCOc1ccccc1)c1nc(-c2ccc(Cl)nc2)nc2ccccc12 [Compound 17]
180 | 15.8 | CN(CCOc1ccc(CCc2ccccc2)cc1)c1nc(-c2cccnc2)nc2ccccc12 [Compound 21]
500 | 3.55 | Cc1cccc(OCCN(C)c2nc(-c3cccnc3)nc3ccccc23)c1 [Compound 23]
350 | 3.16 | Cc1ccccc1OCCN(C)c1nc(-c2cccnc2)nc2ccccc12 [Compound 28]
250 | 1.21 | CN(CCOc1ccccc1)c1nc(-c2cncc(Cl)c2)nc2ccccc12 [Compound 32]
190 | 2.82 | C#Cc1ccc(OCCN(C)c2nc(-c3cccnc3)nc3ccccc23)cc1 [Compound 33]
160 | 1.12 | CN(CCOc1ccccc1)c1nc(-c2cccnc2F)nc2ccccc12 [Compound 34]
180 | 0.51 | CN(CCOc1ccccc1)c1nc(-c2cncc(F)c2)nc2ccccc12 [Compound 35]
220 | 1.58 | CN(CCOc1ccccc1)c1nc(-c2ccc(F)nc2)nc2ccccc12 [Compound 36]
250 | 1.65 | CN(CCOc1ccccc1)c1nc(-c2cncc(C(F)(F)F)c2)nc2ccccc12 [Compound 37]
700 | 2.82 | CN(CCOc1ccccc1)c1nc(-c2cccnc2)nc2c(F)cccc12 [Compound 38]
450 | 2.82 | CN(CCOc1ccccc1)c1nc(-c2cccnc2)nc2cc(F)ccc12 [Compound 39]
450 | 1.58 | CN(CCOc1ccccc1)c1nc(-c2cccnc2)nc2ccc(F)cc12 [Compound 40]
180 | 13.5 | CN(CCOc1ccccc1)c1nc(-c2cccnc2)nc2cccc(F)c12 [Compound 41]
175 | 2.21 | Cc1noc(C)c1-c1nc(N(C)CCOc2ccccc2)c2ccccc2n1 [Compound 47]
120 | 2.42 | CN(CCOc1ccccc1)c1nc(-c2coc3ccccc23)nc2ccccc12 [Compound 49]
200 | 8.17 | CN(CCOc1ccccc1)c1nc(-c2ccc(O)nc2)nc2ccccc12 [Compound 51]
300 | 4.1 | CN(CCOc1ccc(CN)cc1)c1nc(-c2cccnc2)nc2ccccc12 [Compound 53]
170 | 3.1 | CN(CCOc1ccccc1)c1nc(-c2ccc(N)nc2)nc2ccccc12 [Compound 54]
141 | 7.08 | CN(CCOc1ccccc1)c1nc(Nc2ccccc2)nc2ccccc12 [Compound 66]

— patent US12291533B2, “Substituted fused pyrimidine compounds and uses thereof” (Northwestern University, priority 2017, dated 2025)
